Source: the NIST ThermoML archive (doi:10.1021/acs.jced.7b00121)
± gives the expanded uncertainty stated by the source.

Settings: 101.33 kPa, Liquid; for viscosity: Falling or rolling sphere viscometry; for mass density: Vibrating tube method

Structure (SMILES) | viscosity (288.15 K) [mPa·s] | mass density (288.15 K) [kg/m3] | viscosity (293.15 K) [mPa·s] | mass density (293.15 K) [kg/m3] | viscosity (298.15 K) [mPa·s] | mass density (298.15 K) [kg/m3] | viscosity (303.15 K) [mPa·s] | mass density (303.15 K) [kg/m3] | viscosity (308.15 K) [mPa·s] | mass density (308.15 K) [kg/m3] | viscosity (313.15 K) [mPa·s] | mass density (313.15 K) [kg/m3] | viscosity (318.15 K) [mPa·s] | mass density (318.15 K) [kg/m3] | viscosity (323.15 K) [mPa·s] | mass density (323.15 K) [kg/m3] | viscosity (328.15 K) [mPa·s] | mass density (328.15 K) [kg/m3] | viscosity (333.15 K) [mPa·s] | mass density (333.15 K) [kg/m3] | also measured
CCCCCCCCCC [decane] | 0.987 ± 0.099 | 733.57 ± 1.5 | 0.915 ± 0.092 | 729.81 ± 1.5 | 0.852 ± 0.085 | 726.05 ± 1.5 | 0.797 ± 0.08 | 722.28 ± 1.4 | 0.747 ± 0.075 | 718.49 ± 1.4 | 0.703 ± 0.07 | 714.69 ± 1.4 | 0.663 ± 0.066 | 710.88 ± 1.4 | 0.627 ± 0.063 | 707.06 ± 1.4 | 0.593 ± 0.059 | 703.21 ± 1.4 | 0.563 ± 0.056 | 699.36 ± 1.4 | viscosity (338.15 K): 0.536 ± 0.054 mPa·s; mass density (338.15 K): 695.48 ± 1.4 kg/m3; viscosity (343.15 K): 0.512 ± 0.051 mPa·s; mass density (343.15 K): 691.59 ± 1.4 kg/m3
CCCCCCC [heptane] | 0.432 ± 0.043 | 688.13 ± 1.4 | 0.412 ± 0.041 | 683.93 ± 1.4 | 0.393 ± 0.039 | 679.71 ± 1.4 | 0.377 ± 0.038 | 675.47 ± 1.4 | 0.362 ± 0.036 | 671.2 ± 1.4 | 0.348 ± 0.035 | 666.89 ± 1.4 | 0.335 ± 0.034 | 662.55 ± 1.4 | 0.324 ± 0.033 | 658.19 ± 1.3 | 0.312 ± 0.031 | 653.79 ± 1.3 | 0.302 ± 0.03 | 649.33 ± 1.3 | viscosity (338.15 K): 0.293 ± 0.029 mPa·s; mass density (338.15 K): 644.84 ± 1.3 kg/m3; viscosity (343.15 K): 0.284 ± 0.029 mPa·s; mass density (343.15 K): 640.29 ± 1.3 kg/m3
CCCCCCCCC [nonane] | 0.763 ± 0.077 | 721.64 ± 1.4 | 0.713 ± 0.072 | 717.78 ± 1.4 | 0.669 ± 0.067 | 713.91 ± 1.4 | 0.63 ± 0.063 | 710.03 ± 1.4 | 0.594 ± 0.06 | 706.12 ± 1.4 | 0.564 ± 0.057 | 702.2 ± 1.4 | 0.535 ± 0.054 | 698.26 ± 1.4 | 0.509 ± 0.051 | 694.3 ± 1.4 | 0.485 ± 0.049 | 690.33 ± 1.4 | 0.462 ± 0.046 | 686.34 ± 1.4 | viscosity (338.15 K): 0.443 ± 0.044 mPa·s; mass density (338.15 K): 682.31 ± 1.4 kg/m3; viscosity (343.15 K): 0.425 ± 0.043 mPa·s; mass density (343.15 K): 678.26 ± 1.4 kg/m3
CCCCCCCC [octane] | 0.585 ± 0.059 | 706.54 ± 1.4 | 0.552 ± 0.055 | 702.53 ± 1.4 | 0.523 ± 0.052 | 698.51 ± 1.4 | 0.496 ± 0.05 | 694.48 ± 1.4 | 0.473 ± 0.047 | 690.42 ± 1.4 | 0.45 ± 0.045 | 686.34 ± 1.4 | 0.431 ± 0.043 | 682.24 ± 1.4 | 0.412 ± 0.041 | 678.11 ± 1.4 | 0.395 ± 0.04 | 673.95 ± 1.4 | 0.379 ± 0.038 | 669.77 ± 1.4 | viscosity (338.15 K): 0.365 ± 0.037 mPa·s; mass density (338.15 K): 665.55 ± 1.4 kg/m3; viscosity (343.15 K): 0.352 ± 0.035 mPa·s; mass density (343.15 K): 661.28 ± 1.3 kg/m3
